Patent US12077503B2, “Substituted cyclic amides and their use as herbicides” (FMC CORPORATION, priority 2015, dated 2024)

Tests used:
Format in all cases: in vivo
[1] = tested on: giant foxtail (Setaria faberi); experiment: Test G Post-Emergence Protocol; settings: Setaria faberi, post-emergence, 312 h
How it was run: (§1)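 Scores run 0 (no damage) to 100 (total damage) and were taken 13 days after spraying. Plants had been raised in pots for 8 days under glasshouse control (24/16 °C, 14 h photoperiod, 65% humidity) and then treated at 15.625, 62.5 or 250 g/ha.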

[2] = tested on: barnyardgrass (Echinochloa crus-galli); experiment: Test G Post-Emergence Protocol; settings: Echinochloa crus-galli, post-emergence, 312 h
How it was run: as §1

corn (Zea mays) [3] = experiment: Test G Post-Emergence Protocol; settings: Zea mays, post-emergence, 312 h
How it was run: as §1

[4] = tested on: velvetleaf (Abutilon theophrasti); experiment: Test G Post-Emergence Protocol; settings: Abutilon theophrasti, post-emergence, 312 h
How it was run: as §1

[5] = tested on: redroot pigweed (Amaranthus retroflexus); experiment: Test G Post-Emergence Protocol; settings: Amaranthus retroflexus, post-emergence, 312 h
How it was run: as §1

[6] = tested on: ivy-leaved morning glory (Ipomoea hederacea); experiment: Test G Post-Emergence Protocol; settings: Ipomoea, post-emergence, 312 h
How it was run: as §1

[7] = tested on: giant foxtail (Setaria faberi); experiment: Test G Pre-Emergence Protocol; settings: Setaria faberi, pre-emergence, 312 h, evaluated after 13 days
How it was run: (§2)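 Seeds were sown in standard soil and kept one day in a glasshouse (24/16° C day/night, 14 h light, 65% humidity), then sprayed with compound in acetone/water (50:50) containing 0.5% Tween 20 at 15.625, 62.5 or 250 g/ha. Damage was scored after 13 days (0 = none, 100 = total).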

[8] = tested on: barnyardgrass (Echinochloa crus-galli); experiment: Test G Pre-Emergence Protocol; settings: Echinochloa crus-galli, pre-emergence, 312 h, evaluated after 13 days
How it was run: as §2

corn (Zea mays) [9] = experiment: Test G Pre-Emergence Protocol; settings: Zea mays, pre-emergence, 312 h, evaluated after 13 days
How it was run: as §2

[10] = tested on: velvetleaf (Abutilon theophrasti); experiment: Test G Pre-Emergence Protocol; settings: Abutilon theophrasti, pre-emergence, 312 h, evaluated after 13 days
How it was run: as §2

[11] = tested on: redroot pigweed (Amaranthus retroflexus); experiment: Test G Pre-Emergence Protocol; settings: Amaranthus retroflexus, pre-emergence, 312 h, evaluated after 13 days
How it was run: as §2

[12] = tested on: ivy-leaved morning glory (Ipomoea hederacea); experiment: Test G Pre-Emergence Protocol; settings: Ipomoea, pre-emergence, 312 h, evaluated after 13 days
How it was run: as §2

Cc1c(Cl)ccc([C@@H]2CN(C)C(=O)[C@H]2C(=O)Nc2cccc(F)c2F)c1F (racemic) [Compound 1473]
20%: plant injury at 15.625 g/ha (corn (Zea mays) [3]; 15.625 g ai/ha, evaluated after 13 days (100=total damage to plant; 0=no damage to plant), read-out: Corn damage rating) | pest or weed control at 250 g/ha ([6]; 250 g ai/ha, evaluated after 13 days, read-out: damage to plant, Morningglory, Ivy-leaved (100=total damage to plant; 0=no damage to plant)) | pest or weed control at 15.625 g/ha ([8]; 15.625 g ai/ha, read-out: Barnyard grass damage rating (100=total damage to plant; 0=no damage to plant))
60%: pest or weed control at 15.625 g/ha ([1]; 15.625 g ai/ha, evaluated after 13 days (100=total damage to plant; 0=no damage to plant), read-out: Foxtail, Giant damage rating)
80%: pest or weed control at 250 g/ha ([7]; 250 g ai/ha, read-out: Foxtail, Giant damage rating (100=total damage to plant; 0=no damage to plant))
0%: pest or weed control at 15.625 g/ha ([4]; 15.625 g ai/ha, evaluated after 13 days (100=total damage to plant; 0=no damage to plant), read-out: Velvetleaf damage rating) | pest or weed control at 62.5 g/ha ([4]; 62.5 g ai/ha, evaluated after 13 days, read-out: Velvetleaf damage rating (100=total damage to plant; 0=no damage to plant)) | pest or weed control at 15.625 g/ha ([5]; 15.625 g ai/ha, evaluated after 13 days (100=total damage to plant; 0=no damage to plant), read-out: Pigweed, Redroot damage rating) | pest or weed control at 62.5 g/ha ([5]; 62.5 g ai/ha, evaluated after 13 days, read-out: Pigweed, Redroot damage rating (100=total damage to plant; 0=no damage to plant)) | pest or weed control at 15.625 g/ha ([6]; 15.625 g ai/ha, evaluated after 13 days (100=total damage to plant; 0=no damage to plant), read-out: Morningglory, Ivy-leaved damage rating) | plant injury at 15.625 g/ha (corn (Zea mays) [9]; 15.625 g ai/ha, read-out: Corn damage rating (100=total damage to plant; 0=no damage to plant)) | plant injury at 62.5 g/ha (corn (Zea mays) [9]; 62.5 g ai/ha, 100=total damage to plant, 0=no damage to plant, read-out: plant damage rating, Corn) | pest or weed control at 15.625 g/ha ([10]; 15.625 g ai/ha, read-out: Velvetleaf damage rating (100=total damage to plant; 0=no damage to plant)) | pest or weed control at 62.5 g/ha ([10]; 62.5 g ai/ha, 100=total damage to plant, 0=no damage to plant, read-out: plant damage rating, Velvetleaf) | pest or weed control at 250 g/ha ([10]; 250 g ai/ha, read-out: Velvetleaf damage rating (100=total damage to plant; 0=no damage to plant)) | pest or weed control at 15.625 g/ha ([11]; 15.625 g ai/ha, read-out: Pigweed, Redroot damage rating (100=total damage to plant; 0=no damage to plant)) | pest or weed control at 62.5 g/ha ([11]; 62.5 g ai/ha, 100=total damage to plant, 0=no damage to plant, read-out: plant damage rating, Pigweed, Redroot) | pest or weed control at 62.5 g/ha ([12]; 62.5 g ai/ha, 100=total damage to plant, 0=no damage to plant, read-out: plant damage rating, Morningglory, Ivy-leaved)
40%: pest or weed control at 15.625 g/ha ([2]; 15.625 g ai/ha, evaluated after 13 days (100=total damage to plant; 0=no damage to plant), read-out: Barnyardgrass damage rating) | pest or weed control at 62.5 g/ha ([2]; 62.5 g ai/ha, evaluated after 13 days, read-out: Barnyardgrass damage rating (100=total damage to plant; 0=no damage to plant)) | pest or weed control at 62.5 g/ha ([8]; 62.5 g ai/ha, 100=total damage to plant, 0=no damage to plant, read-out: plant damage rating, Barnyardgrass)
70%: pest or weed control at 62.5 g/ha ([1]; 62.5 g ai/ha, evaluated after 13 days, read-out: Foxtail, Giant damage rating (100=total damage to plant; 0=no damage to plant)) | pest or weed control at 250 g/ha ([1]; 250 g ai/ha, evaluated after 13 days, read-out: damage to plant, Foxtail, Giant (100=total damage to plant; 0=no damage to plant)) | pest or weed control at 62.5 g/ha ([7]; 62.5 g ai/ha, 100=total damage to plant, 0=no damage to plant, read-out: plant damage rating, Foxtail, Giant) | pest or weed control at 250 g/ha ([8]; 250 g ai/ha, read-out: Barnyardgrass damage rating (100=total damage to plant; 0=no damage to plant)) | pest or weed control at 250 g/ha ([11]; 250 g ai/ha, read-out: Pigweed, Redroot damage rating (100=total damage to plant; 0=no damage to plant))
50%: pest or weed control at 250 g/ha ([2]; 250 g ai/ha, evaluated after 13 days, read-out: damage to plant, Barnyardgrass (100=total damage to plant; 0=no damage to plant)) | pest or weed control at 15.625 g/ha ([7]; 15.625 g ai/ha, read-out: Foxtail, Giant damage rating (100=total damage to plant; 0=no damage to plant))
10%: plant injury at 62.5 g/ha (corn (Zea mays) [3]; 62.5 g ai/ha, evaluated after 13 days, read-out: Corn damage rating (100=total damage to plant; 0=no damage to plant)) | plant injury at 250 g/ha (corn (Zea mays) [3]; 250 g ai/ha, evaluated after 13 days, read-out: damage to plant, Corn (100=total damage to plant; 0=no damage to plant)) | pest or weed control at 250 g/ha ([4]; 250 g ai/ha, evaluated after 13 days, read-out: damage to plant, Velvetleaf (100=total damage to plant; 0=no damage to plant)) | pest or weed control at 250 g/ha ([5]; 250 g ai/ha, evaluated after 13 days, read-out: damage to plant, Pigweed, Redroot (100=total damage to plant; 0=no damage to plant)) | pest or weed control at 62.5 g/ha ([6]; 62.5 g ai/ha, evaluated after 13 days, read-out: Morningglory, Ivy-leaved damage rating (100=total damage to plant; 0=no damage to plant)) | plant injury at 250 g/ha (corn (Zea mays) [9]; 250 g ai/ha, read-out: Corn damage rating (100=total damage to plant; 0=no damage to plant)) | pest or weed control at 15.625 g/ha ([12]; 15.625 g ai/ha, read-out: Morning-glory, Ivy-leaved damage rating (100=total damage to plant; 0=no damage to plant)) | pest or weed control at 250 g/ha ([12]; 250 g ai/ha, read-out: Morningglory, Ivy-leaved damage rating (100=total damage to plant; 0=no damage to plant))
